The values that follow come from patent US9611257B2, “PRMT5 inhibitors and uses thereof” (Epizyme, Inc., priority 2012, dated 2017).

The experiment addresses T1, PRMT5/MEP50 (Homo sapiens, UniProt O14744).
T1 construct: Expressed full-length human Flag-PRMT5/6His-MeP50 protein complex was purified; made in house; host or cells: Spodoptera frugiperda (SF9) insect cells, baculovirus (pDEST8)
Nature of the experiment: PRMT5 Biochemical Assay (PRMT5/MEP50 enzyme assay on peptide substrate, 3H-SAM Flashplate). Particulars: PRMT5/MEP50 4 nM, 3H-SAM 75 nM, peptide 40 nM, 30 min preincubation at 25 degrees Celsius. Here is the method: • Mobile phase A: 4 L H2O\1.5 ml TFA; Mobile phase B: 4 L ACN\0.75 ml TFA • Column: HPLC-D: Innovation C18 UPLC Column 2.1×30 mm, 2.6 um • HPLC-E: Xtimate C18 2.1*30 mm*3 um • HPLC-H: Innovation C18 UPLC Column 2.1×30 mm, 2.6 um • Column temperature: 50° C.; Wavelength: 220 nm & 254 nm & 215 nm General HPLC Conditions (Basic) • Mobile phase A: 4 L H2O\2 ml NH4OH; Mobile phase B: Acetonitrile • Column: HPLC-B: XBridge C18 2.1*50 mm, 5 um • HPLC-C: Xbridge shield RP18 2.1*50 mm, 5 u • Column temperature: 30° C.; Wavelength: 220 nm & 254 nm & 215 nm General HPLC Conditions (Neutral) • Mobile phase A: H2O; Mobile phase B: Acetonitrile • Column: HPLC-B: XBridge C18 2.1*50 mm, 5 um • HPLC-C: Xbridge shield RP18 2.1*50 mm, 5 um • Column temperature: 30° C.; Wavelength: 220 nm & 254 nm & 215 nm Method A (0-30AB_6MIN) Flow Rate: 0.8 ml/min Gradient: 0% B to 30% B in 4.2 min, holding 30% B for 1 min, 30% B to 0% B in 0.01 min, holding 0% B for 1.09 min and then end. Method B (0-60AB_6MIN) • Flow Rate: 0.8 ml/min • Gradient: 0% B to 60% B in 4.2 min, holding 60% B for 1 min, 60% B to 0% B in 0.01 min, holding 0% B for 1.09 min and then end. Method C (10-80AB_6MIN) • Flow Rate: 0.8 ml/min • Gradient: 10% B to 80% B in 4.2 min, holding 80% B for 1 min, 80% B to 10% B in 0.01 min, holding 10% B for 1.09 min and then end. […]

Molecules are shown by their SMILES.

T1 sequence (O14744 with tags, fused parts or gaps): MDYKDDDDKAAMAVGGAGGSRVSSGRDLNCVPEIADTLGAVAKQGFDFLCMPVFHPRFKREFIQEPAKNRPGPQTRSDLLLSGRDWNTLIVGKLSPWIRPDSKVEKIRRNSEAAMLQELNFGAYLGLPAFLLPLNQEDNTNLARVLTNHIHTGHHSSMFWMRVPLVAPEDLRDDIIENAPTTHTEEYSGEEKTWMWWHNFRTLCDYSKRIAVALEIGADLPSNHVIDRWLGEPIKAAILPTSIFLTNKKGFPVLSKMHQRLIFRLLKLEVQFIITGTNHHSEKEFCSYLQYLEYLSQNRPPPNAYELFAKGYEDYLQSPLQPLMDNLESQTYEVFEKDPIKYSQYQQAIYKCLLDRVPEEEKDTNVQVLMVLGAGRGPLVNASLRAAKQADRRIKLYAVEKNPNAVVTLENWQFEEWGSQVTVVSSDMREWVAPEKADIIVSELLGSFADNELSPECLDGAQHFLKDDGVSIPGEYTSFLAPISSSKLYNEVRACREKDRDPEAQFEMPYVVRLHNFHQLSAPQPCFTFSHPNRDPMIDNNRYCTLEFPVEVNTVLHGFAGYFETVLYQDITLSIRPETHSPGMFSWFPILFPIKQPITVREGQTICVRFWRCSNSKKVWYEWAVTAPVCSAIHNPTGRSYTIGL
T1 sequence (Q9BQA1 with tags, fused parts or gaps partner limits assumed): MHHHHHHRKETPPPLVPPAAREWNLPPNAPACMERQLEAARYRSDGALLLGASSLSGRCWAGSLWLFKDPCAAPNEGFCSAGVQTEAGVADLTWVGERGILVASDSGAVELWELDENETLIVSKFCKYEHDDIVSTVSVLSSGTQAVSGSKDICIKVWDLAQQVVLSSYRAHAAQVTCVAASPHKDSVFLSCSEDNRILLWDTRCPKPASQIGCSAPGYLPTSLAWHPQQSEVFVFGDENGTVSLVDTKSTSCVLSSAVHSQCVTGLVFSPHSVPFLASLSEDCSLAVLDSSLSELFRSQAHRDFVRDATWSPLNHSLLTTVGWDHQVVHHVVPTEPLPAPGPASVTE

As a reminder, the IC50 is the concentration at which inhibition is half-maximal. Turning to `O=C(NC1CCOCC1)c1ccn(CC(O)CN2CCc3ccccc3C2)c(=O)c1` (centres unmarked) [Compound 33], the 50% inhibitory concentration (IC50) was 0.101 to 1 µM.

On to `O=C(NC1CCOCC1)c1cc(=O)n(CC(O)CN2CCc3ccccc3C2)cn1` (centres unmarked) [Compound 34], for which the IC50 is 1 to 10 µM.
